{"source": "patent US20240197828A1", "about": "“Chimeric molecule to treat sepsis and other inflammatory conditions” (THE FEINSTEIN INSTITUTES FOR MEDICAL RESEARCH, priority 2022, published 2024)", "key": {"WT mice": {"system": "WT mice", "assay": "CLP-induced sepsis, 10-day survival", "assay_type": "in vivo, mouse", "protocol": "FIG. 6A-6M: MOP3 ameliorates inflammation, lung injury, and improves survival in sepsis. WT mice subjected to CLP-induced sepsis with MOP3 treatment (10 μg/kg) or vehicle (volume-equivalent). After 20 hours, blood and lung tissue collected for respective analyses. (A-C) Serum was analyzed for systemic eCIRP, IL-6, and TNFα levels by ELISA. (D-F) Serum was analyzed for ALT, AST, and LDH by calorimetric assays. (G-I) Lung tissue was frozen and mRNA expression of IL-6, TNFα, and IL-1β was measured by PCR and MPO by calorimetric assay. (J) Lung tissue was frozen and analyzed for MPO levels by calorimetric assay. (K) Lungs were sectioned, imaged for histologic injury by H&E staining, and performed lung injury scoring. (L) Sectioned lungs were stained for TUNEL positive cells and cell counts were quantified. […] Data are expressed as mean±SEM and compared by one-way ANOVA and SNK test. *p<0.05 vs. sham, #p<0.05 vs. CLP vehicle. (M) WT mice subjected to CLP-induced sepsis with MOP3 treatment (10 μg/kg) or vehicle (volume equivalent) and monitored for 10 days for humane endpoints, and differences in survival were determined (N=17 per group). *p<0.05 vs. CLP vehicle. […]\nData represented in the figures are expressed as mean±SEM. […] Survival rates were analyzed by the Kaplan-Meier estimator and compared using a log-rank test. Significant differences between groups were determined by Tukey's method. […]"}, "RAW264.7 cells": {"system": "RAW264.7 cells", "assay": "eCIRP-induced cytokine release in RAW264.7 cells (ELISA of supernatants)", "assay_type": "cell-based, mouse", "details": "RAW264.7, rmCIRP 1 μg/mL, 4 hours, vs rmCIRP alone", "protocol": "FIG. 2. Effects of MOP peptides on TNFα levels. RAW264.7 macrophages were cultured and treated with either volume-equivalent PBS, recombinant murine (rm) CIRP (eCIRP; 1 μg/mL), or rmCIRP with each respective peptide (10 μg/mL). After 4 hours, cell supernatants were assessed for TNFα levels by ELISA. Experiments were performed 3 times, and all data were used for analysis. Data are expressed as mean±SEM and compared by one-way ANOVA and SNK test. *p<0.05 vs. PBS, #p<0.05 vs. eCIRP.\nFIG. 4. eCIRP-induced inflammation is attenuated by MOP3. RAW264.7 cells were treated according to respective groups: PBS (volume equivalent), rmCIRP (1 μg/mL), or rmCIRP with MOP3 at increasing doses. After 4 hours, cell supernatants were analyzed for TNFα levels by ELISA. Experiments were performed 3 times, and all data were used for analysis. Data are expressed as mean #SEM and compared by one-way ANOVA and SNK test. *p<0.05 vs. PBS, #p<0.05 vs. eCIRP.\nComputational modeling was used to determine the likely domain of MFG-E8's binding to eCIRP. The known amino acid (AA) sequence of this domain was used to develop and test potential therapeutic peptides. An MFG-E8 derived oligopeptide, MOP3, was developed based on 15 AA from MFG-E8 discoidin 2 domain (mimicking MFG-E8's C-terminal) and tagged with the 3 AA, RGD, (mimicking MFG-E8's binding capacity for the integrin receptor at the N-terminal). Binding of MOP3 to CIRP was quantified using Surface Plasmon Resonance (SPR) analysis. Macrophages (RAW264.7 cells) were treated with FITC-recombinant mouse (rm)-CIRP or co-incubated MOP3 and FITC-rmCIRP with and without a. Br-integrin Ab. After 1 h, cells were fixed and analyzed for intracellular FITC-rmCIRP by flow cytometry. Macrophages were stimulated with rmCIRP or co-incubated mixture of MOP3 and rmCIRP. After 4 h, cell culture supernatants were analyzed for inflammatory cytokine, TNFα.\nMouse macrophage cell line, RAW264.7 cells were obtained from American Type Culture Collection (ATCC) and cultured in DMEM media with 10% FBS, 1% penicillin and streptomycin, and 1% glutamine. Cells were kept in 37° C. incubator under humidified conditions containing 5% CO2. […]\nThe mouse macrophage cell culture supernatants were analyzed for cytokine levels using ELISA kits (BD Biosciences, CA). […] TNF-α and IL-6 levels were measured in cell supernatants by ELISA in accordance with respective manufacturers' instructions (BD Biosciences, CA). Blood was collected, centrifuged at 4,000 RPM for 10 minutes, and sera was separated and analyzed for cytokine levels using ELISA kits (BD Biosciences, CA). TNF-α and IL-6 levels in the serum were measured by ELISA in accordance with respective manufacturers' instructions."}}, "note": "“Also recorded” adds a separate entry of the source. Residues, ends and D or L forms follow the SMILES beside them.", "data": [{"smiles": "CC(C)C[C@H](NC(=O)[C@H](CC(N)=O)NC(=O)[C@H](Cc1c[nH]c2ccccc12)NC(=O)[C@@H](NC(=O)[C@H](CCCCN)NC(=O)[C@H](Cc1ccc(O)cc1)NC(=O)[C@H](CO)NC(=O)[C@H](CO)NC(=O)[C@H](CO)NC(=O)[C@H](CC(=O)O)NC(=O)CNC(=O)[C@@H](N)CCCNC(=N)N)[C@@H](C)O)C(=O)N[C@@H](CCCNC(=N)N)C(=O)N[C@@H](C)C(=O)N[C@@H](Cc1ccccc1)C(=O)NCC(=O)N[C@@H](Cc1c[nH]c2ccccc12)C(=O)N[C@@H](Cc1ccc(O)cc1)C(=O)O", "note": "[MOP3, RGDSSSYKTWNLRAFGWY] (H-RGDSSSYKTWNLRAFGWY-OH; N-terminus and C-terminus assumed)", "values": [{"measurement": "mortality", "setting": "WT mice; CLP, one-time MOP3 dose, monitored 10 days, N=17 per group", "value": 17.6, "unit": "%"}, {"measurement": "observed phenotypic effects", "setting": "WT mice; septic mice, no off-target, pharmacokinetic or toxicity studies performed", "value": "lack of observed phenotypic effects"}, {"measurement": "TNFα levels in cell supernatants", "setting": "RAW264.7 cells", "value": "strong inhibitory effect; also recorded: significantly decreased TNFα levels"}, {"measurement": "TNFα levels in cell supernatants", "setting": "RAW264.7 cells; listed as peptide-3", "value": "capable of attenuating TNFα release"}]}]}
